Laboratory results from paper PMC4109918, “Design, Synthesis and Pharmacological Evaluation of Novel Vanadium-Containing Complexes as Antidiabetic Agents” (PLoS ONE, 2014).
Like-named read-outs stand apart in the source and are kept apart here.

Legend:
[1] = set-up: method as in PMID 12888267; conditions: cited from earlier work
FFAs = conditions: hypoglycemic activity, File S1, cited from earlier work
[2] = tested on: free fatty acids released in adipocytes; experiment: Insulin-mimetic action: inhibition of free fatty acid release from epinephrine-stimulated adipocytes; assay type: cell-based; conditions: rat adipocytes, 30 min with compound at 37°C, then 3 hours with epinephrine; 50% inhibition of FFA release; read-out: IC50 exp (±S.D.) (FFAs)
Method: All rats (250–300 g) and mice (22–25 g) were housed in a temperature controlled room (24°C±1°C) and they had received standard food pellets and tap water […]. At the end of the study (24 h after CIN induction), all animal test subjects were euthanized by inhalation of ether anesthesia. Rat adipocytes were prepared from the fat pads of male Wistar rats by collagenase digestion according to the method of Rodbell. Freshly prepared adipocytes were incubated (37°C, 30 min) with solutions of the vanadium compounds at three concentrations (0.1, 0.5 and 1 mM in isotonic saline and 5 mM glucose), followed by 3 hours of incubation with epinephrine. The inhibitory effect was determined in terms of the decrease of the amount free fatty acids released in adipocytes. All assays were performed in duplicate or triplicate. […] Investigations were carried out on mongrel white mice.

rat = experiment: Acute toxicity study, rapid method of Prozorovskii (LD50); assay type: in vivo; set-up: LD50exp: unit not given here; conditions: for LD50exp: range in brackets; for Class in AD (experimental toxicity class): rat, in vivo
Method: Acute toxicity studies were carried out by rapid method of Prozorovskii. […] The following criteria were used for the evaluation of acute toxicity: the number of dead animals, the timing of their death, LD50 through the night, the picture of intoxication, behavioral change and autopsy results of the survived animals after 14 days. Clinical examination was performed for each animal during the first hour after administration of the substance, and weekly thereafter. Clinical examination included a detailed inspection of the animal in cage, in hands and in the open area. The manifestation and severity of intoxication were noted. Examination of animals in order to identify mortality or signs of variations in health status was conducted on a daily basis. Integrated indicators were assessed weekly during the entire period of observation. Death of animals was recorded daily during entire study period. General condition and behavior of animals as well as type of toxic manifestations, including their development and termination were recorded daily during the procedures for monitoring and inspection of individual animals.

[3] = tested on: adrenaline hyperglycemia in mongrel white mice; experiment: In vivo hypoglycemic activity in the adrenaline hyperglycemia model; conditions: oral, 1/10 of the LD50, 1 hour prior to epinephrine hydrochloride 1 mg/kg s.c.
Method: Determination of hypoglycemic activity of 5 complexes was performed on 75 mice. Adrenaline hyperglycemia was caused by subcutaneous administration of 0.1% epinephrine hydrochloride (AGH) at a dose of 1 mg/kg. […] In each experimental group there were 3 animals and 3 replicates were performed. The content of glucose in whole blood was determined at 0.5, 1 and 2 hours after administration of AGH or glucose using portable glucose monitoring systems, OneTouch Ultra test strip and OneTouch Ultra and Clever check TD4209 and strips Clever check TD4209.

## Cc1occc(=O)c1[O-].Cc1occc(=O)c1[O-].[O]=[V+2] [BMOV, bis(maltolato)oxovanadium(IV)]
[1]
  LD50: 220 mg/kg
FFAs; ref 5 (Sakurai et al. 2010)
  IC50: 676 µM

## O.O.O.O.O.O.O.O.[Na+].[O]=[V-]12([O][O]1)[O][O]2.c1ccc(-c2ccccn2)nc1 [Complex I, Sodium(2,2′-Bipyridyl) oxo-diperoxovanadate(V) octahydrate]
[2]
  IC50: 720 ± 90 µM
rat
  LD50exp: 108(95–122)
  Class in AD (experimental toxicity class): 3
[3]
  decreasing blood glucose level: 50%

## CC(=O)/C=C(/C)[O-].CC(=O)/C=C(/C)[O-].[O]=[V+2] [Complex II, Bis(acetylacetonato)oxo-vanadium(IV)]
[2]
  IC50: 950 ± 90 µM

## CC(C)(C)OC(=O)[N-]C(=N)N.CC(C)(C)OC(=O)[N-]C(=N)N.[O]=[V+2] [Complex III, Bis{tert-butyl[amino(imino)methyl]carbamato} oxovanadium (IV)]
[2]
  IC50: 540 ± 70 µM
rat
  LD50exp: 190(170–210)
  Class in AD (experimental toxicity class): 3
[3]
  decreasing blood glucose level: 42%

## O=C([O-])C([O-])C([O-])C(=O)[O-].O=C([O-])C([O-])C([O-])C(=O)[O-].[K+].[K+].[K+].[K+].[O]=[V+2].[O]=[V+2] (stereo not drawn) [Complex IV, Potassium bis((m2-d,d-tartrato-O,O′,O′′,O′′′)-oxo-vanadium(IV)) dihydrate]
[2]
  IC50: 950 ± 100 µM

## O=C1[O][V+4]2(=[O])([O]C(=O)c3c(O)ccc[n+]32)[n+]2cccc(O)c21 [VO(3hpa)2]
FFAs; ref 1 (Sakurai, Yasui 2003)
  IC50: 470 µM

## Cc1ccc[n+]2c1C(=O)[O][V+4]21(=[O])[O]C(=O)c2c(C)ccc[n+]21 [VO(3mpa)2]
FFAs; ref 3 (Sakurai et al. 2000)
  IC50: 660 µM

## O=C1[O][V+4]2(=[O])([O]C(=O)c3cc(Cl)cc[n+]32)[n+]2ccc(Cl)cc21 [VO(4clpa)2]
FFAs; ref 3 (Sakurai et al. 2000)
  IC50: 700 µM

## O=C1[O][V+4]2(=[O])([O]C(=O)c3ccc(I)c[n+]32)[n+]2cc(I)ccc21 [VO(5ipa)2]
FFAs; ref 3 (Sakurai et al. 2000)
  IC50: 450 µM

## CCc1cccc2[n+]1[V+4]1(=[O])([O]C2=O)[O]C(=O)c2cccc(CC)[n+]21 [VO(6epa)2]
FFAs; ref 4 (Sasagawa et al. 2002)
  IC50: 810 µM

## O=C1[O][V+4]2(=[O])([O]C(=O)c3cccc(O)[n+]32)[n+]2c(O)cccc21 [VO(6hpa)2]
FFAs; ref 1 (Sakurai, Yasui 2003)
  IC50: 800 µM

## Cc1cccc2[n+]1[V+4]1(=[O])([O]C2=O)[O]C(=O)c2cccc(C)[n+]21 [VO(6mpa)2]
FFAs; ref 3 (Sakurai et al. 2000)
  IC50: 490 µM

## CCCCCC1=C2[O][V+4]3(=[O])([O]C4=C(CCCCC)OC(C)=C(OC)C4=[O+]3)[O+]=C2C(OC)=C(C)O1 [VO(alx)2]
FFAs; ref 5 (Sakurai et al. 2010)
  IC50: 553 µM

## [O]=[V+4]12([O][n+]3ccccc3[S]1)[O][n+]1ccccc1[S]2 [VO(opt)2]
FFAs; ref 6 (Sakurai et al. 1999)
  IC50: 190 µM

## O=C1[O][V+4]2(=[O])([O]C(=O)c3cccc[n+]32)[n+]2ccccc21 [VO(pic)2]
FFAs; ref 3 (Sakurai et al. 2000)
  IC50: 590 µM

## O=S(=O)([O-])[O-].[O]=[V+2] [VOSO4, Vanadyl sulfate]
[2]
  IC50: 1000 ± 90 µM
FFAs; ref 1 (Sakurai, Yasui 2003)
  IC50: 840 µM
rat
  LD50exp: 448(356–540)
  Class in AD (experimental toxicity class): 3
[3]
  decreasing blood glucose level: 16%

## Cc1cccc2[n+]1[Zn+2]1([O]C2=O)[O]C(=O)c2cccc(C)[n+]21 [Zn(6mpa)2]
FFAs; ref 7 (Yoshikawa et al. 2002)
  IC50: 310 µM

## O=C[C@@H]1CC(=O)[NH][Zn@@+2]2([NH]C(=O)C[C@H](C=O)[NH]2)[NH]1 [Zn(L-Asn)2]
FFAs; ref 8 (Yoshikawa et al. 2001)
  IC50: 650 µM

## O=C[C@H]1CCC[N]1[Zn+2][N]1CCC[C@@H]1C=O [Zn(L-Pro)2]
FFAs; ref 8 (Yoshikawa et al. 2001)
  IC50: 890 µM

## C[C@@H](O)[C@H]1[NH][Zn+2]2([NH][C@H]([C@@H](C)O)C(=O)[O]2)[O]C1=O [Zn(L-Thr)2]
FFAs; ref 8 (Yoshikawa et al. 2001)
  IC50: 540 µM

## CC(C)[C@H](C=O)[NH][Zn+2][NH][C@H](C=O)C(C)C [Zn(L-Val)2]
FFAs; ref 8 (Yoshikawa et al. 2001)
  IC50: 770 µM

## Cc1occc(=O)c1[O][Zn+2][O]c1c(C)occc1=O [Zn(maltolat)2]
FFAs; ref 7 (Yoshikawa et al. 2002)
  IC50: 590 µM

## O=C1[O][Zn+2]2([O]C(=O)c3cccc[n+]32)[n+]2ccccc21 [Zn(pic)2]
FFAs; ref 7 (Yoshikawa et al. 2002)
  IC50: 640 µM

## O=S1(=O)[O][Zn+2][O]1 [ZnSO4]
FFAs; ref 8 (Yoshikawa et al. 2001)
  IC50: 810 µM

## O=S(=O)(O)[O][V+4]123(=[O])[O]c4ccccc4C[N+]1(Cc1cccc[n+]12)Cc1cccc[n+]13 (stereo not drawn) [[VIVO(bp-O)HSO4]]
FFAs; ref 9 (Nilsson et al. 2009)
  IC50: 3850 µM

## COC(=O)[C@@H](Cc1c[nH]c2ccccc12)NC(=O)c1ccc2[n+](c1)[V+4]1(=[O])([O]C2=O)[O]C(=O)c2ccc(C(=O)N[C@H](Cc3c[nH]c4ccccc34)C(=O)OC)c[n+]21 [[VIVO(pic-trpMe)2]]
FFAs; ref 9 (Nilsson et al. 2009)
  IC50: 410 µM

## O=S(=O)([O-])[O-].[O]=[V+2].c1ccc(CN(Cc2ccccn2)Cc2ccccn2)nc1 [[VIVO(tpa)SO4]]
FFAs; ref 9 (Nilsson et al. 2009)
  IC50: 4600 µM

## O=C(N[C@H](Cc1c[nH]c2ccccc12)C(=O)O)c1ccc2[n+](c1)[V+4]1(=[O])([O]C2=O)[n+]2ccccc2C[N+]1(Cc1ccccn1)Cc1ccccn1 [[VVO(pic-trpH)tpa]2+]
FFAs; ref 9 (Nilsson et al. 2009)
  IC50: 1840 µM

## [O]=[V+4]12([O]C3=COC=C[C@@H]3[O]1)[O]C1=COC=C[C@H]1[O]2 [bis(3-hydroxy-4-pyronato)oxovanadium(IV)]
FFAs; ref 2 (Sakurai et al. 2008)
  IC50: 1180 µM

## CCC1=C2[O][V+4]3(=[O])([O]C4=C(CC)OC=C[C@@H]4[O]3)[O][C@H]2C=CO1 [bis(ethylmaltolato)oxovanadium(IV)]
FFAs; ref 5 (Sakurai et al. 2010)
  IC50: 632 µM

## (S)-[2-(N-salicylidene) amino-propionate] oxovanadium(IV) monohydrate [Complex V]
[2]
  IC50: 810 ± 60 µM
rat
  LD50exp: 245(210–280)
  Class in AD (experimental toxicity class): 3
[3]
  decreasing blood glucose level: 26%
